# Experiment: Pain relief and mobility in patients with musculoskeletal trauma, flavonoid/flavonol versus NSAID
# Assay type: in vivo, human
# Method: A preparation containing 2000 mg of quercitin and 20 mg OPC flavonols was given to one group of patients every 6 hours relief of pain. A second group of patients were given 650 mg of […]) every 4 hours.
# [1] = Acute knee trauma patellar dislocation
smiles,measurement,setting,value
Cc1ccc(-c2cc(C(F)(F)F)nn2-c2ccc(S(N)(=O)=O)cc2)cc1 [NSAID],mobility,[1],mobility = 10
same,pain dec,[1],pain dec = 5
same,mobility,"Basketball ""groin muscle pull""",mobility = 30
same,pain dec,"Basketball ""groin muscle pull""",pain dec = 15
same,mobility,Blunt injury to R. shoulder,mobility = 25
same,pain dec,Blunt injury to R. shoulder,pain dec = 20
